Measurements: patent US20030054524A1, “Method of increasing the fatty acid content in plant seeds” (priority 1999, published 2003)
pIC50: −log10 of the molar value.

Key:
clKASIV = biological target: T1, clKASIV (Cuphea lanceolata, UniProt Q949J2); assay: Enzyme assay: sensitivity of recombinant clKASIV to cerulenin; type: biochemical; settings: condensation assay with [2-14C]-malonyl-ACP
T1 sequence (Q949J2 106-538): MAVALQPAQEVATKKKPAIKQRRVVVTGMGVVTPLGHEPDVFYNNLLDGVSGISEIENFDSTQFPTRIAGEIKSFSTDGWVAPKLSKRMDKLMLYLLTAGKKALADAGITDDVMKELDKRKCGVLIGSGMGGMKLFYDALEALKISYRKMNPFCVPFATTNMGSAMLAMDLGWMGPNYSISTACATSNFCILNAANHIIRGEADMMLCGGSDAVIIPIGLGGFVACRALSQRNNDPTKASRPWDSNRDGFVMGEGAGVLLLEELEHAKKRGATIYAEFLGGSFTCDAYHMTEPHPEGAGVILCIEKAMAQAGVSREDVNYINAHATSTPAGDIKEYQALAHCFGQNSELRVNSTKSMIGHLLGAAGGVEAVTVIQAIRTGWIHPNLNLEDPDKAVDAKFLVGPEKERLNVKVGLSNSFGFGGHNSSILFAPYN
Method: The substrate specificities of the recombinant KASII and KASIV enzymes was investigated by incorporating radioactivity of [2-1^4C]-malonyl-ACP into the condensation products. The batch ([…]) contained 100 mM sodium phosphate, pH 7.6, 10 µM acyl-ACP with a specific chain length, 7.5 μM [2-^14C]-malonyl-ACP (0.74 MBq/mmol), 2 mM NADPH, 2 mM DTT, 0.6 Fkat of affinity-purified recombinant GST-β-ketoacyl-ACP-reductase fusion protein of C. lanceolata (Klein et al. (1992) Mol. Gen. Genet. 233:122-128) and 2 μg of the recombinant KASII/IV preparation. The β-hydroxyacyl-ACPs that were synthesized were precipitated, washed and dissolved as described by Winter et al. (1997) Biochem. J 321:313-318 and then separated by a 2.5 M urea-PAGE. After transfer to an Immobilon P membrane by electroblotting at 0.8 mA/cm for one hour, the reaction products were visualized by autoradiography after five-day exposure on an x-ray film (Hyperfilm MP, Amersham, Braunschweig, Germany).
In the assays, saturated acyl-ACP (C4 through C16) was added to the reaction mixture together with [2- ^4C]-malonyl-ACP and was incubated for ten minutes. Incorporation of the radioactivity from [2- ^4C]-malonyl-ACP into the O-ketoacyl-ACP product, which was reduced to β-hydroxyacyl-ACP for the analysis, was determined. […]

enzymes of the KASI type = settings: in the presence of 5 μM cerulenin; cited from earlier work

pIC50 (clKASIV): 4.70
SMILES: C/C=C/C/C=C/CCC(=O)[C@H]1O[C@H]1C(N)=O [cerulenin, Cerulenin]
inactivation of enzymes of the KASI type by cerulenin (enzymes of the KASI type): completely inactivated
